Measured values: BindingDB's records for doi:10.1016/j.ejmech.2020.113107 (Yantai University, 2021)

Key:
[1] = Reversal of P-glycoprotein mediated multidrug resistance in human MCF-7T cells assessed as reversal of resistance to vincristine-induced cytotoxicity by measuring vincristine IC50 at 5 uM measured after 72 hrs by MTT assay
[2] = Reversal of P-glycoprotein mediated multidrug resistance in human MCF-7T cells assessed as reversal of resistance to vincristine-induced cytotoxicity by measuring vincristine IC50 at 10 uM measured after 72 hrs by MTT assay
[3] = Reversal of P-glycoprotein mediated multidrug resistance in human MCF-7T cells assessed as reversal of resistance to paclitaxel-induced cytotoxicity by measuring paclitaxel IC50 at 5 uM measured after 72 hrs by MTT assay
[4] = Reversal of P-glycoprotein mediated multidrug resistance in human KBV cells assessed as reversal of resistance to paclitaxel-induced cytotoxicity by measuring paclitaxel IC50 at 5 uM measured after 72 hrs by MTT assay
[5] = Reversal of P-glycoprotein mediated multidrug resistance in human KBV cells assessed as reversal of resistance to vincristine-induced cytotoxicity by measuring vincristine IC50 at 10 uM measured after 72 hrs by MTT assay
[6] = Reversal of P-glycoprotein mediated multidrug resistance in human MCF-7T cells assessed as reversal of resistance to paclitaxel-induced cytotoxicity by measuring paclitaxel IC50 at 10 uM measured after 72 hrs by MTT assay
[7] = Reversal of P-glycoprotein mediated multidrug resistance in human KBV cells assessed as reversal of resistance to paclitaxel-induced cytotoxicity by measuring paclitaxel IC50 at 10 uM measured after 72 hrs by MTT assay
[8] = Reversal of P-glycoprotein mediated multidrug resistance in human KBV cells assessed as reversal of resistance to vincristine-induced cytotoxicity by measuring vincristine IC50 at 5 uM measured after 72 hrs by MTT assay

Row | Compound | IC50 [1] | IC50 [2] | IC50 [3] | IC50 [4] | IC50 [5] | IC50 [6] | IC50 [7] | IC50 [8]
1 | CC1(C)CC[C@]2(C(=O)OCc3ccccc3)CC[C@]3(C)C(=CC[C@@H]4[C@@]5(C)Cc6nccnc6[C@@](C)(CO)[C@@H]5CC[C@]43C)[C@@H]2C1 | 6.9 nM | 0.03 nM | 13 nM | 59 nM | 2.2 nM | 1.5 nM | 16 nM | 17 nM
2 | COc1cc2c(cc1OC)CN(CCc1ccc(NC(=O)c3cc(OC)c(OC)cc3NC(=O)c3cnc4ccccc4c3)cc1)CC2 | 0.71 nM | 0.22 nM | 3.3 nM | 7.6 nM | 2.1 nM | 0.26 nM | 4.5 nM | 3.3 nM
3 | CC1(C)CC[C@]2(C(=O)OCc3ccccc3)CC[C@]3(C)C(=CC[C@@H]4[C@@]5(C)Cc6nccnc6[C@@](C)(COC(=O)CCC(=O)OCCOCCOCCOCCO)[C@@H]5CC[C@]43C)[C@@H]2C1 | 5.3 nM | 0.04 nM | 5.4 nM | 22 nM | 0.79 nM | 0.89 nM | 4.6 nM | 4 nM
